Source: patent US20060160869A1, “Ubiquitin ligase inhibitors” (Rigel Pharmaceuticals, Inc., priority 2005, published 2006)
Read-outs that look alike come from different tables or passages of the source.

Assays:
[1] = target: T1, MDM2 (Homo sapiens, UniProt Q00987); assay: Plate-based E3 ligase assay, MDM2 autoubiquitination (MDM2-FLAG); assay type: biochemical
Method: E3 (His-APC11/APC2—“APC”) auto-ubiquitination was measured as described in U.S. patent application Ser. No. 09/826,312 (Publication No. US-2002-0042083-A1), which is incorporated herein in its entirety. Details of the protocol are described below. Activity in the presence of the compound was determined relative to a parallel control in which only DMSO was added. Values of the IC50 were typically determined using 6 or 8 different concentrations of the compound, although as few as 2 concentrations may be used to approximate the IC50 value.
Nickel-coated 96-well plates (Pierce 15242) were blocked for 1 hour with 100 μl of blocking buffer at room temperature. The plates were washed 4 times with 225 μl of 1×PBS and 80 μl of the reaction buffer were added that contained 100 ng/well of Flag-ubiquitin. To this, 10 μl of the test compound diluted in DMSO were added. After the test compound was added, 10 μl of E1 (human), E2 (Ubch5c), and APC in Protein Buffer was added to obtain a final concentration of 5 ng/well of E1, 20 ng/well: of E2 and 100 ng/well of APC. The plate were shaken for 10 minutes and incubated at room temperature for 1 hour. After incubation, the plates were washed 4 times with 225 μl of 1×PBS and 100 μl/well of Antibody Mix were added to each well. The plates were incubate at room temperature for another hour after which they were washed 4 times with 225 μl of 1×PBS and 100 μl/well of Lumino substrate were added to each well. The luminescence was measured by using a BMG luminescence microplate reader.
In similar manner, autoubiquitination of the E3 MDM2 was determined (MDM2-FLAG). Further instruction in such assays can be found in U.S. patent application Ser. No. 10/108,767 (Publication No. US-2003-0104474 A1), which is incorporated herein in its entirety.
(§1) hMDM2 Plate/Gel is Mouse double minute 2, human homolog. This protein belongs to the E3 RING finger ligase group.

[2] = system: H1299 cells; assay: PAD anti-proliferation assay, H1299; assay type: cell-based; details: Homo sapiens, NCI-H1299, 48 hours
Method: A549 (ATCC# CCL 185), HeLa (ATCC# CCL 2), HCT116 (ATCC# CCL-247), and H 1299 (ATCC# CRL-5803) cells were maintained in T175 flasks following the ATCC recommended media and handling procedures. Flasks reaching approximately 70% confluency were trypsinized and resuspended in RPMI media (Cell Gro catalog number 10 040 CM) modified to contain 5% FBS, 100 ug/mlPen/Strep (Cell Gro catalog number 30 002 CL), and 0.3 mg/ml L Glutamine (Cell Gro catalog number 25 003 CL). A 20,000 cells/ml solution was made for plating. Cells were plated in black Packard 96 well plates by placing 100 μl per well (2,000 cells per well).
Compounds and additional media were added 24′ hours after cell plating. A compound master plate was created with concentrations 500 times greater than the final concentration added to the cells. All compound testing was done in duplicate using 3 fold dilutions starting with 10 mM. All outside wells (and 4 internal wells) were DMSO controls. Taxol and at least one additional control were run on all plates. Three microliters of the compound master plate were added to deep well blocks containing 750 μl of RPMI media. One hundred microliters were transferred from the compound/media deep well blocks to the plated cells resulting in a 500 fold dilution of the compounds. Cells were grown at 37° C., 5% CO2 for 48 hours.
Cells to be analyzed by photography were fixed and stained. One hundred microliters of media were removed and 100 μl of 2% paraformaldehyde was added to each well. Plates were left on the benchtop for 45 minutes. A staining solution containing 1.55 μl of 1 mg/ml DAPI added to 18.75 ml PBS was warmed for 15 minutes at 37° C. The cells were aspirated prior to washing with 100 μl of PBS. Seventy microliters of PBS were aspirated and 170 μl of the DAPI solution were added to each well of fixed cells. Plates were left at room temperature for one hour then aspirated and washed twice with 100 μl of PBS. The stained cells were left at 4° C. for a minimum of 16 hours before photographic analysis with Array Scan II (Cellomics). Analysis of the photographic images to determine numbers of live cells (proliferation), apoptotic cells and dead cells, were according to the methods described in U.S. Provisional Patent Application Ser. No. 60/406,714, which incorporated herein in its entirety.

[3] = target: T1, MDM2; assay: MDM2 gel-based E3 ligase assay; assay type: biochemical; details: compound at 20 μM; result in words
Method: E3 (His-APC11/APC2—“APC”) auto-ubiquitination was measured as described in U.S. patent application Ser. No. 09/826,312 (Publication No. US-2002-0042083-A1), which is incorporated herein in its entirety. Details of the protocol are described below. Activity in the presence of compound was determined relative to a parallel control in which only DMSO is added. The IC50 values were typically determined using 6 or 8 different concentrations of compound, although as few as 2 concentrations may be used to approximate the IC50 values.
Corning 96-well plates (Corning 3650) were blocked with 100 μl of Blocking Buffer for 1 hour at room temperature. The plates were washed 4 times with 225 μl of 1×PBS and 80 μl of the reaction buffer were added that contained 100 ng/well of Flag-ubiquitin. To this, 10 μl of the test compound diluted in DMSO were added. After the test compound was added, 10 μl of E1 (human), E2 (Ubch5c) and APC in Protein Buffer were added to obtain a final concentration of 5 ng/well of E1, 20 ng/well of E2 and 100 ng/well APC. The plates were shaken for 10 minutes and incubated at room temperature for 1 hour. After incubation, the reaction was stopped by adding 25 μl of loading buffer (non-reducing) per well and the plates were heated at 95° C. for 5 minutes. An aliquot of each well was run on a 10% NugePage Gel and analyzed by Western Blot using the antibody mix and Lumino substrate described below. The luminescence was measured by using a BMG luminescence microplate reader.
as §1

[4] = Table 3, read-out: MDM2 Plate IC50

T1 sequence (Q00987 whole entry): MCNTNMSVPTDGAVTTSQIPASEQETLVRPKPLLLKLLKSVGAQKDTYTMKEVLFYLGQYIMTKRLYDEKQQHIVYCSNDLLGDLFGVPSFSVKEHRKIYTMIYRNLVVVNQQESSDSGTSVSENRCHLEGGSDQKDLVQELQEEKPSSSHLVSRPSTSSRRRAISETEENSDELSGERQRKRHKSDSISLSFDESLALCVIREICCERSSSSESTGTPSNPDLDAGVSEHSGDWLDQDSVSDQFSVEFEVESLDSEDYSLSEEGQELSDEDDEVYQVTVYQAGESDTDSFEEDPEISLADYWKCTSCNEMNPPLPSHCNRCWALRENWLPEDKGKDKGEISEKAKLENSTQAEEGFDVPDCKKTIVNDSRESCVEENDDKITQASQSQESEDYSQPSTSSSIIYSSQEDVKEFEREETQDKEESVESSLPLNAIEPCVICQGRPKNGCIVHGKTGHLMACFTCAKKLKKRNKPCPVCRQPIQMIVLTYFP

| SMILES | IC50 ([1]; Table 2, read-out: MDM2 IC50) | IC50 [1, 4] | IC50 [2] | MDM2 Gel 20 μM [3] |
| --- | --- | --- | --- | --- |
| O=C(c1ccc(CN(Cc2cccc(OC(F)(F)F)c2)c2nc(-c3ccccc3)cs2)cc1)N1CCNCC1 [compound 275] | 1 to 20 µM | 1 to 20 µM | 1 to 20 µM | Weak |
| O=C(c1ccc(CN(Cc2cccc(OC(F)(F)F)c2)c2nc(-c3ccc4ccccc4c3)cs2)cc1)N1CCNCC1 [compound 282, 4-(2-naphthyl)-N-[4-(piperazin-1-ylcarbonyl)benzyl]-N-[3-(trifluoromethoxy)benzyl]-1,3-thiazol-2-amine] | 1 to 20 µM | 1 to 20 µM | 1 to 20 µM | Potent |
| COc1cccc(-c2csc(N(Cc3ccc(C(=O)N4CCNCC4)cc3)Cc3cccc(OC(F)(F)F)c3)n2)c1 [compound 351] | 1 to 20 µM | 1 to 20 µM | 1 to 20 µM | Active |
| COc1cccc(-c2csc(N(CCOc3ccccc3)Cc3ccc(C(=O)N4CCNCC4)cc3)n2)c1 [compound 352] | 1 to 20 µM | 1 to 20 µM | 1 to 20 µM | Weak |
| COc1cccc(CN(Cc2ccc(C(=O)N3CCNCC3)cc2)c2nc(-c3ccc(Br)cc3)cs2)c1OC [compound 353] | 1 to 20 µM | 1 to 20 µM | 1 to 20 µM | Active |
| O=C(c1ccc(CN(CCOc2ccccc2)c2nc(-c3ccc(Cl)c(Cl)c3)cs2)cc1)N1CCNCC1 [compound 360] | 1 to 20 µM | < 1 µM | 1 to 20 µM | Potent |
